Results published in US6570018B2 (Pfizer Inc, priority 2000, dated 2003).
Where a name gives a salt, the structure may show the parent alone.

How the values were obtained:
[1] = stability of crystalline form versus the anhydrous mesylate salt; type: physicochemical; conditions: compared with the anhydrous mesylate salt

C[C@@H](C(=O)c1ccc(OCc2ccccc2)cc1)N1CCC(O)(c2ccccc2)CC1
melting point: 102.5 to 103.8 °C

C[C@@H]([C@@H](O)c1ccc(O)cc1)N1CCC(O)(c2ccccc2)CC1 [mesylate salt trihydrate, (1S,2S)-1-(4-Hydroxyphenyl)-2-(4-hydroxy-4-phenylpiperidino)-1-propanol, Methanesulfonate Salt Trihydrate]
stability of crystalline form / shelf life [1]: more stable crystalline form than the anhydrous mesylate salt
